Assay results taken from patent US9782424B2, “Synergistic combination comprising avermectins and a NSAID for tumor inhibition” (Ectin Research AB, priority 2011, dated 2017).

How the values were obtained:
[1] = system: prostatic cell line (LNCaP); assay: XTT-assay proliferation rate, prostatic cell line; type: cell-based, human; conditions: for Proliferation rate compared to untreated control: LNCaP (Table 5)
Method: (§1) Commercially available human tumor cell lines were purchased from ATCC (ATCC/LGC-standards, Borás, Sweden). […] Briefly, ampoules of frozen cells were thawed by submerging into a 37° C. water bath for 45 s. […] With supernatant discarded, cell pellets were further resuspended with 5 ml complete medium into 25 cm^2 cell culture flasks (Cell+, Sarstedt, Nümbrecht, Germany). Tumor cells were cultured until sub-confluence and further sub-cultured with Trypsin (0.5%), EDTA (0.2%) solution (T4174, TE-10x, Sigma) in sterile sodium chloride. Culture media was changed two-three times a week. Culture flasks (Cell+, Sarstedt, Nümbrecht, Germany) and culture plates (Falcon/BD, Franklin Lakes, N.J., USA) were used for experimental set-ups. Cells were regularly monitored using an inverted microscope connected to a digital photo equipment (Axiovert 25 and Axiovision, Zeiss, Carl Zeiss AG, Germany) (FIG. 1). Described culture techniques and equipment have been used extensively in the laboratory
(§2) The proliferation rates of the different human tumor cell lines were studied using a method based on the conversion of a sodium salt (XTT-assay, Sigma) into a stable orange color that could be analyzed in a spectrophotometer. […] The color change was measured using a 96-well plate reader with software to calculate the absorbance at 450 nm (V-max/Softmax Pro, Molecular Devices, USA).
(§3) Increasing concentrations of substance ivermectin was added with an 8-channel pipette (Titertek, Kem-En-Tec, Taastrup, Denmark) together with sterile pipette tips (Molecular Bioproducts, San Diego, Calif., USA). Cell cultures including active substances were incubated for 24 hours (and 96 hours). Untreated wells including culture medium only served as untreated controls. The XTT-assay substrate was added and after gentle agitation using a micro plate shaker, absorbencies at 450 and 650 nm were measured. Levels from medium were subtracted and compared with control wells, using culture medium only.

[2] = system: breast cell line (ZR-75-1); assay: XTT-assay proliferation rate, breast cell line; type: cell-based, human; conditions: for Proliferation rate in per cent compared to untreated medium control: 2R-75-1 breast Ca; for Proliferation rate compared to untreated control: ZR-75-1 (Table 6)
Method: as §1, §2, §3

[3] = system: urinary bladder cells (UM-UC-3); assay: Morphology of cultured tumor cells, UM-UC-3; type: cell-based, human; conditions: ivermectin 100 μM, 24 hours (FIG. 6)
Method: (§4) Commercially available human tumor cell lines were purchased from ATCC (ATCC/LGC-standards, Borás, Sweden). Cell lines from urinary bladder (UM-UC-3, #CRL-1749), colorectal carcinoma (Colo205, #CCL-222 and HT29, #HTB-38), prostate carcinoma (LNCaP, #CRL-1740) and breast carcinoma (ZR-75-1, #CRL-1500) were purchased and stored in liquid nitrogen. Cells were cultured in Roswell Park Memorial Institute media (RPMI-1640) or minimum essential medium with Earl's salts (EMEM) supplemented with 10% Foetal calf serum (FCS, Sigma) and cultured using a 37° C. cell culture incubator (Forma Scientific, NinoLab, Kungsbacka, Sweden) with 5% CO2 humidified atmosphere. Tumor cell lines were handled aseptically using a laminar airflow (LAF) bench (Holten 2448, Ninolab, Sweden) and stored in a liquid nitrogen tank and were initiated in culture as previously described (Falk P. Experimental models of the peritoneal environment: Effects of TGF-beta and Hyaluronan. Göteborg: University of Gothenburg; 2008). Briefly, ampoules of frozen cells were thawed by submerging into a 37° C. water bath for 45 s. Cells were resuspended in 10 ml of preheated RPMI-1640 with 10% FCS and centrifuged in 260 g for 10 min. […] Cells were regularly monitored using an inverted microscope connected to a digital photo equipment (Axiovert 25 and Axiovision, Zeiss, Carl Zeiss AG, Germany) (FIG. 1). […]

[4] = system: breast cancer cell line 2R-75-1; assay: Morphology of cultured tumor cells, ZR-75-1; type: cell-based, human; conditions: ivermectin 10e-4 to 10e-10 mol/L (FIG. 2)
Method: as §4

[5] = system: human urinary bladder cancer cells; assay: Tryphan blue exclusion viability; type: cell-based; conditions: compared to untreated medium control (FIG. 3)
Method: The effect of Ivermectin, selamectin, abamectin alone, or in combination with ketoconazole, albendazole, ibuprofen, diclofenac and celecoxib on the morphology of cultured human tumor cells was studied. The effect of ivermectin in the presence of increasing concentration of ivermectin was also investigated. Cells were grown into sub-confluence and then sub-cultured into 12 and 24 well plates (Sarstedt, Falcon/BD) for morphology studies, or in 96 well plates (Sarstedt, Falcon/BD) for proliferation studies. Viability of urinary bladder cells was studied using the tryphan blue exclusion method (Freshney R. Culture of animal cells: A manual of basic techniques. New York: Alan R Liss Inc; 1987).

## 22,23-dihydroavermectin B1a+22,23-dihydroavermectin B1b [ivermectin]
[1]; IVM 1 μmol/L alone
  Proliferation rate compared to untreated control: 95.4 ± 0.6%
[1]; IVM 10 μmol/L alone
  Proliferation rate compared to untreated control: 106.4±2.2%
[1]; IVM 10 μmol/L alone, listed as IVM
  Proliferation rate compared to untreated control: 106.4 ± 2.2%
[1]; IVM 100 μmol/L alone
  Proliferation rate compared to untreated control: 45.7 ± 2.2%
[1]; LNCaP, ivermectin 10e-9 mol/L
  Proliferation rate in per cent compared to untreated medium control: 91 ± 4%
[1]; LNCaP, ivermectin 10e-8 mol/L
  Proliferation rate in per cent compared to untreated medium control: 93 ± 5%
[1]; LNCaP, ivermectin 10e-7 mol/L
  Proliferation rate in per cent compared to untreated medium control: 94 ± 5%
[1]; LNCaP, ivermectin 10e-6 mol/L
  Proliferation rate in per cent compared to untreated medium control: 99 ± 4%
[1]; LNCaP, ivermectin 100 μM alone or in combination
  Effect on proliferation rate compared to untreated control: reduced the proliferation rate
[1]; LNCaP, ivermectin 10e-4 mol/L
  Proliferation rate in per cent compared to untreated medium control: 8±1%
[2]; ivermectin 10e-9 mol/L
  Proliferation rate in per cent compared to untreated medium control: 114 ± 31%
[2]; ivermectin 10e-8 mol/L
  Proliferation rate in per cent compared to untreated medium control: 128 ± 30%
[2]; ivermectin 10e-7 mol/L
  Proliferation rate in per cent compared to untreated medium control: 105 ± 35%
[2]; ivermectin 10e-6 mol/L
  Proliferation rate in per cent compared to untreated medium control: 95 ± 37%
[2]; ivermectin 10e-5 mol/L
  Proliferation rate in per cent compared to untreated medium control: 124 ± 34%
[2]; ivermectin 10e-4 mol/L
  Proliferation rate in per cent compared to untreated medium control: 7±2%
[2]; IVM 1 μmol/L alone
  Proliferation rate compared to untreated control: 90.0 ± 5.2%
[2]; IVM 10 μmol/L alone
  Proliferation rate compared to untreated control: 60.5 ± 10.6%
[2]; IVM 100 μmol/L alone
  Proliferation rate compared to untreated control: 14.4 ± 1.7%
[2]; ZR-75-1, ivermectin 100 μM alone or in combination
  Effect on proliferation rate compared to untreated control: reduced the proliferation rate
[3]
  Effect on morphology: affected
[4]
  Morphological effects over the concentration series: affected by the highest concentration 10e-4 mol/L only
[5]
  Tryphan blue exclusion (viability): affected cells in a dose-dependent manner
